In brackets after ≈: the same amount, converted by molar mass. Activity calls are given as the source filed them. No cut-off for these calls is given here.
Legend:
[1] = tested on: Cryptococcus neoformans; experiment: Antifungal activity against Cryptococcus neoformans H99 after 48 hrs by growth curve assay; type: functional; details: for MIC80: var grubii H99 
[2] = tested on: Trichophyton rubrum; experiment: Antifungal activity against Trichophyton rubrum TIA after 48 hrs by spectrophotometery; type: functional
[3] = tested on: Cryptococcus gattii; experiment: Antifungal activity against Cryptococcus gattii ATCC 14116 after 72 hrs by spectrophotometery; details: ATCC 14116, 72 h
[4] = tested on: Nakaseomyces glabratus; experiment: Antifungal activity against Candida glabrata 8535 after 48 hrs by spectrophotometery; type: functional; details: Nakaseomyces glabratus, 8535, 48 h
[5] = Protein binding in mouse plasma; type: ADME, cell-free
[6] = Half life in ICR mouse liver microsomes at 1 uM measured up to 45 mins in presence of NADPH by LC-MS/MS analysis; type: ADME, Microsome
[7] = tested on: HUVEC; experiment: Cytotoxicity against human HUVEC; type: cell-based
[8] = tested on: Nannizzia gypsea; experiment: Antifungal activity against Microsporum gypseum MZC after 48 hrs by spectrophotometery; type: functional
[9] = tested on: Cryptococcus neoformans; experiment: Antibiofilm activity against Cryptococcus neoformans H99 at 16 ug/ml after 90 mins by XTT assay; type: functional, organism-based; details: var grubii H99
[10] = tested on: Cryptococcus neoformans; experiment: Antifungal activity against Cryptococcus neoformans ATCC 34877 after 72 hrs by spectrophotometery; type: functional; details: ATCC 34877, 72 h
[11] = tested on: Cryptococcus neoformans; experiment: Inhibition of urease production in Cryptococcus neoformans H99 at 10 ug/ml; type: functional, organism-based; details: var grubii H99
[12] = tested on: Candida parapsilosis; experiment: Antifungal activity against Candida parapsilosis 5008 after 48 hrs by spectrophotometery; type: functional; details: Lodderomyces parapsilosis, 5008, 48 h
[13] = tested on: Cryptococcus neoformans; experiment: Inhibition of melanin production in Cryptococcus neoformans H99 at 2.5 ug/ml; type: functional, organism-based; details: var grubii H99
[14] = tested on: Cryptococcus neoformans; experiment: Antifungal activity against Cryptococcus neoformans H99 after 72 hrs by growth curve assay; type: functional; details: var grubii H99 
[15] = Clearance in ICR mouse liver microsomes at 1 uM measured up to 45 mins in presence of NADPH by LC-MS/MS analysis; type: ADME, Microsome; details: 0.75 h
[16] = tested on: Candida albicans; experiment: Antifungal activity against Candida albicans 0304103 after 48 hrs by spectrophotometery; type: functional; details: Candida albicans, 0304103, 48 h
[17] = tested on: Cryptococcus neoformans; experiment: Antifungal activity against Cryptococcus neoformans H99 assessed as inhibition of microbial growth at 8 ug/ml after 12 to 48 hrs by growth curve assay; type: functional; details: var grubii H99, read-out: GI
[18] = tested on: Aspergillus fumigatus; experiment: Antifungal activity against Aspergillus fumigatus 7544 after 48 hrs by spectrophotometery; type: functional; details: Aspergillus fumigatus, 7544, 48 h
[19] = Solubility of the compound; type: physicochemical
[20] = tested on: Candida albicans; experiment: Antifungal activity against Candida albicans 7781 after 48 hrs by spectrophotometery; type: functional; details: Candida albicans, 7781, 48 h

Structure (SMILES): COc1ccc(N2CCN(CCCn3c4c(c5ccccc53)CCNC4)CC2)cc1
- MIC80 [1]: 64 µg/mL (≈ 158 µM)

Structure (SMILES): c1ccc2c(c1)c1c(n2CCCN2CCCC2)CNCC1
- MIC80 [1]: 64 µg/mL (≈ 226 µM)

Structure (SMILES): Clc1ccc(OCCCn2c3c(c4ccc(Br)cc42)CCNC3)cc1.O=C(O)C(F)(F)F
- MIC80 [1]: 2 µg/mL

Structure (SMILES): Fc1ccc(OCCCn2c3c(c4ccccc42)CCNC3)cc1.O=C(O)C(F)(F)F
- MIC80 [1]: 8 µg/mL

Structure (SMILES): O=C(O)C(F)(F)F.O=[N+]([O-])c1ccc(OCCCn2c3c(c4ccccc42)CCNC3)cc1
- MIC80 [1]: 16 µg/mL

Structure (SMILES): Clc1ccc(OCCCn2c3c(c4c(Cl)cccc42)CCNC3)cc1.O=C(O)C(F)(F)F
- MIC80 [1]: 4 µg/mL

Structure (SMILES): Clc1ccc(OCCCn2c3c(c4c(Br)cccc42)CCNC3)cc1.O=C(O)C(F)(F)F
- MIC80 [1]: 8 µg/mL

Structure (SMILES): COc1ccc(NCCCn2c3c(c4ccccc42)CCNC3)cc1.O=C(O)C(F)(F)F
- MIC80 [1]: 32 µg/mL

Structure (SMILES): COc1ccc2c(c1)c1c(n2CCCOc2ccc(Cl)cc2)CNCC1.O=C(O)C(F)(F)F
- MIC80 [1]: 4 µg/mL

Structure (SMILES): Cc1cccc2c3c(n(CCCOc4ccc(Cl)cc4)c12)CNCC3.O=C(O)C(F)(F)F
- MIC80 [1]: 2 µg/mL

Structure (SMILES): C1=CCN(CCCn2c3c(c4ccccc42)CCNC3)C1
- MIC80 [1]: 64 µg/mL (≈ 227 µM)

Structure (SMILES): Clc1ccc(OCCCn2c3c(c4cccc(Cl)c42)CCNC3)cc1.O=C(O)C(F)(F)F
- MIC80 [1]: 2 µg/mL

Structure (SMILES): COc1ccc(OCCCn2c3c(c4ccccc42)CCNC3)cc1.O=C(O)C(F)(F)F
- MIC80 [1]: 16 µg/mL

Structure (SMILES): Fc1cccc2c1c1c(n2CCCOc2ccc(Cl)cc2)CNCC1.O=C(O)C(F)(F)F
- MIC80 [1]: 4 µg/mL

Structure (SMILES): Brc1cccc(OCCCn2c3c(c4ccccc42)CCNC3)c1.O=C(O)C(F)(F)F
- MIC80 [1]: 4 µg/mL

Structure (SMILES): Clc1ccc(OCCCn2c3c(c4cccc(Br)c42)CCNC3)cc1.O=C(O)C(F)(F)F
- MIC80 [1]: 4 µg/mL

Structure (SMILES): c1ccc2c(c1)c1c(n2CCN2CCOCC2)CNCC1
- MIC80 [1]: 64 µg/mL (≈ 224 µM)

Structure (SMILES): Brc1ccccc1NCCCn1c2c(c3ccccc31)CCNC2.O=C(O)C(F)(F)F
- MIC80 [1]: 8 µg/mL

Structure (SMILES): CCN(CC)CCCn1c2c(c3ccccc31)CCNC2
- MIC80 [1]: 64 µg/mL (≈ 224 µM)

Structure (SMILES): Fc1cccc(OCCCn2c3c(c4ccccc42)CCNC3)c1.O=C(O)C(F)(F)F
- MIC80 [1]: 8 µg/mL

Structure (SMILES): Clc1cccc(OCCCn2c3c(c4ccccc42)CCNC3)c1.O=C(O)C(F)(F)F
- MIC80 [1]: 4 µg/mL

Structure (SMILES): c1ccc2c(c1)c1c(n2CCCN2CCCCC2)CNCC1
- MIC80 [1]: 64 µg/mL (≈ 215 µM)

Structure (SMILES): c1ccc2c(c1)c1c(n2CCCNC2CCCC2)CNCC1
- MIC80 [1]: 64 µg/mL (≈ 215 µM)

Structure (SMILES): Fc1ccc2c3c(n(CCCOc4ccc(Cl)cc4)c2c1)CNCC3.O=C(O)C(F)(F)F
- MIC80 [1]: 2 µg/mL

Structure (SMILES): Clc1ccc(NCCCn2c3c(c4ccccc42)CCNC3)cc1.O=C(O)C(F)(F)F
- MIC80 [1]: 8 µg/mL

Structure (SMILES): Fc1cccc(NCCCn2c3c(c4ccccc42)CCNC3)c1.O=C(O)C(F)(F)F
- MIC80 [1]: 16 µg/mL

Structure (SMILES): Brc1ccccc1OCCCn1c2c(c3ccccc31)CCNC2.O=C(O)C(F)(F)F
- MIC80 [1]: 8 µg/mL

Structure (SMILES): CN(C)CCn1c2c(c3ccccc31)CCNC2
- MIC80 [1]: 64 µg/mL (≈ 263 µM)

Structure (SMILES): Brc1ccc(OCCCn2c3c(c4ccccc42)CCNC3)cc1.O=C(O)C(F)(F)F
- MIC80 [1]: 4 µg/mL

Structure (SMILES): COc1ccccc1OCCCn1c2c(c3ccccc31)CCNC2.O=C(O)C(F)(F)F
- MIC80 [1]: 32 µg/mL

Structure (SMILES): O=C1c2ccccc2C(=O)N1CCCn1c2c(c3ccccc31)CCNC2
- MIC80 [1]: 64 µg/mL (≈ 178 µM)

Structure (SMILES): Clc1cccc(NCCCn2c3c(c4ccccc42)CCNC3)c1.O=C(O)C(F)(F)F
- MIC80 [1]: 8 µg/mL

Structure (SMILES): COc1cccc(NCCCn2c3c(c4ccccc42)CCNC3)c1.O=C(O)C(F)(F)F
- MIC80 [1]: 32 µg/mL

Structure (SMILES): c1ccc(C2CCN(CCCn3c4c(c5ccccc53)CCNC4)CC2)cc1
- MIC80 [1]: 32 µg/mL (≈ 85.7 µM)

Structure (SMILES): c1ccc(N2CCN(CCCn3c4c(c5ccccc53)CCNC4)CC2)cc1
- MIC80 [1]: 32 µg/mL (≈ 85.4 µM)

Structure (SMILES): c1ccc(CN2CCN(CCCn3c4c(c5ccccc53)CCNC4)CC2)cc1
- MIC80 [1]: 32 µg/mL (≈ 82.4 µM)

Structure (SMILES): Clc1ccccc1OCCCn1c2c(c3ccccc31)CCNC2.O=C(O)C(F)(F)F
- MIC80 [1]: 4 µg/mL

Structure (SMILES): Clc1ccccc1NCCCn1c2c(c3ccccc31)CCNC2.O=C(O)C(F)(F)F
- MIC80 [1]: 8 µg/mL

Structure (SMILES): Brc1cccc(NCCCn2c3c(c4ccccc42)CCNC3)c1.O=C(O)C(F)(F)F
- MIC80 [1]: 8 µg/mL

Structure (SMILES): Cc1ccc2c(c1)c1c(n2CCCOc2ccc(Cl)cc2)CNCC1.O=C(O)C(F)(F)F
- MIC80 [2]: 4 µg/mL
- MIC80 [3]: 2 µg/mL
- MIC80 [4]: 2 µg/mL
- PPB [5]: Active
- half-life at 1 µM [6]: 11 min
- Activity [7]: Non-Toxic
- MIC80 [8]: 8 µg/mL
- Activity [9]: Active
- MIC80 [10]: 2 µg/mL
- inhibition [11]: inactive
- Activity ([1]; var grubii H99): Dose-dependent effect
- MIC80 [1]: 1 µg/mL
- MIC80 [12]: 8 µg/mL
- inhibition [13]: Active
- MIC80 [14]: 2 µg/mL
- scaled CLint [15]: 477 mL/min/kg
- MIC80 [16]: 4 µg/mL
- inhibition of growth at 8 µg/mL [17]: 100%
- MIC80 [18]: 8 µg/mL
- solubility [19]: 57.5 µg/mL
- MIC80 [20]: 4 µg/mL

Structure (SMILES): CCOc1cccc(NCCCn2c3c(c4ccccc42)CCNC3)c1.O=C(O)C(F)(F)F
- MIC80 [1]: 64 µg/mL

Structure (SMILES): COc1cccc2c3c(n(CCCOc4ccc(Cl)cc4)c12)CNCC3.O=C(O)C(F)(F)F
- MIC80 [1]: 4 µg/mL

Structure (SMILES): Cc1ccc2c3c(n(CCCOc4ccc(Cl)cc4)c2c1)CNCC3.O=C(O)C(F)(F)F
- MIC80 [1]: 2 µg/mL

Structure (SMILES): Fc1ccccc1NCCCn1c2c(c3ccccc31)CCNC2.O=C(O)C(F)(F)F
- MIC80 [1]: 16 µg/mL

Structure (SMILES): Cc1ncc2n1-c1ccc(Cl)cc1C(c1ccccc1F)=NC2 [MIDAZOLAM]
- half-life at 1 µM [6]: 2 min

Structure (SMILES): Clc1ccc(OCCCn2c3c(c4ccc(Cl)cc42)CCNC3)cc1.O=C(O)C(F)(F)F
- MIC80 [1]: 2 µg/mL

Structure (SMILES): CCOc1ccccc1NCCCn1c2c(c3ccccc31)CCNC2.O=C(O)C(F)(F)F
- MIC80 [1]: 32 µg/mL

Structure (SMILES): COc1cccc(OCCCn2c3c(c4ccccc42)CCNC3)c1.O=C(O)C(F)(F)F
- MIC80 [1]: 16 µg/mL

Structure (SMILES): Clc1ccc(OCCCn2c3c(c4cc(Br)ccc42)CCNC3)cc1.O=C(O)C(F)(F)F
- MIC80 [1]: 0.5 µg/mL
- solubility [19]: 19.3 µg/mL

Structure (SMILES): Fc1ccccc1OCCCn1c2c(c3ccccc31)CCNC2.O=C(O)C(F)(F)F
- MIC80 [1]: 16 µg/mL

Structure (SMILES): Brc1ccc(NCCCn2c3c(c4ccccc42)CCNC3)cc1.O=C(O)C(F)(F)F
- MIC80 [1]: 8 µg/mL

Structure (SMILES): Cc1ccc(NCCCn2c3c(c4ccccc42)CCNC3)cc1.O=C(O)C(F)(F)F
- MIC80 [1]: 16 µg/mL

Structure (SMILES): Fc1ccc(NCCCn2c3c(c4ccccc42)CCNC3)cc1.O=C(O)C(F)(F)F
- MIC80 [1]: 16 µg/mL

Structure (SMILES): Cc1ccc(OCCCn2c3c(c4ccccc42)CCNC3)cc1.O=C(O)C(F)(F)F
- MIC80 [1]: 8 µg/mL

Structure (SMILES): COc1ccccc1NCCCn1c2c(c3ccccc31)CCNC2.O=C(O)C(F)(F)F
- MIC80 [1]: 32 µg/mL

Structure (SMILES): CC1CCCN(CCCn2c3c(c4ccccc42)CCNC3)C1 (stereo unspecified)
- MIC80 [1]: 32 µg/mL (≈ 103 µM)

Structure (SMILES): COc1ccccc1N1CCN(CCCn2c3c(c4ccccc42)CCNC3)CC1
- MIC80 [1]: 64 µg/mL (≈ 158 µM)

Structure (SMILES): CCOc1ccc(NCCCn2c3c(c4ccccc42)CCNC3)cc1.O=C(O)C(F)(F)F
- MIC80 [1]: 32 µg/mL

Structure (SMILES): COc1ccc2c3c(n(CCCOc4ccc(Cl)cc4)c2c1)CNCC3.O=C(O)C(F)(F)F
- MIC80 [1]: 2 µg/mL

Structure (SMILES): Clc1ccc(OCCCn2c3c(c4ccccc42)CCNC3)cc1.O=C(O)C(F)(F)F
- MIC80 [1]: 4 µg/mL
